In patent publication US11197862B2, “Methods of preventing toxicity of platinum drugs” (XOMICS BIOPHARMA, INC., priority 2015, dated 2021):
Entries after “also recorded” stand apart in the source; their conditions may differ.

Experiments:
[1] = system: cells co-expressing OCT2 and MATE1; test: Intracellular oxaliplatin content in cells co-expressing OCT2 and MATE1; format: cell-based; settings: oxaliplatin 100 μM in 4% BSA HBSS, 90 min
Text: In most naturally occurring cells, uptake transporters co-exist with efflux transporters. It is the interplay between the uptake and efflux transporters that determines the net intracellular accumulation of a substrate. One example is in the proximal tubule epithelial cells in the kidney, where the basolaterally expressed transporters, mainly OCT2, work in concert with the apically expressed MATE1 and MATE2K [5]. […] Cells with single expression of OCT2 or GFP mock were also used as a control.

[2] = Plasma levels of buflomedil and oxaliplatin in the chronic model; format: in vivo, mouse; settings: 15 minutes after the 8th cycle
Experimental: At baseline (before drug treatment) and at the end of treatment, caudal nerve conduction study (NCS), behavioral tests (Dynamic and Cold Plate), histopathology study were performed. Serum samples were collected at the end of treatment.

[3] = system: male wistar rats treated with cisplatin; test: Cisplatin nephrotoxicity in Wistar rats (Example 9); format: in vivo, rat; settings: co-administration with cisplatin 11 mg/kg IV; 72 hrs post treatment; expected
[4] = Published clinical pharmacokinetic data; settings: from published Cmax and protein binding
[5] = system: HT-29 cells; test: Anti-proliferation study (SRB assay) in HT-29 cells; settings: for effect on anti-tumor potency of gemcitabine in HT-29: buflomedil 6 μM, FIG. 13; for effect on anti-tumor potency of 5-FU in HT-29: buflomedil 6 uM, dolutegravir 3, 6 and 9 μM, FIG. 12
Experimental: The potency was determined by the sulforhodamine B (SRB) assay in 96-well plates. […] Seeding density was 3000 cells/well for both cell lines.

[6] = target: T1, OCT2 (Homo sapiens, UniProt O15244); test: Inhibition of OCT2-mediated ASP+ uptake (Kido et al., Giacomini group); settings: human, cell line expressing human OCT2 (cell line not given), probe ASP+ 5 μM
T1 sequence (O15244 1-555): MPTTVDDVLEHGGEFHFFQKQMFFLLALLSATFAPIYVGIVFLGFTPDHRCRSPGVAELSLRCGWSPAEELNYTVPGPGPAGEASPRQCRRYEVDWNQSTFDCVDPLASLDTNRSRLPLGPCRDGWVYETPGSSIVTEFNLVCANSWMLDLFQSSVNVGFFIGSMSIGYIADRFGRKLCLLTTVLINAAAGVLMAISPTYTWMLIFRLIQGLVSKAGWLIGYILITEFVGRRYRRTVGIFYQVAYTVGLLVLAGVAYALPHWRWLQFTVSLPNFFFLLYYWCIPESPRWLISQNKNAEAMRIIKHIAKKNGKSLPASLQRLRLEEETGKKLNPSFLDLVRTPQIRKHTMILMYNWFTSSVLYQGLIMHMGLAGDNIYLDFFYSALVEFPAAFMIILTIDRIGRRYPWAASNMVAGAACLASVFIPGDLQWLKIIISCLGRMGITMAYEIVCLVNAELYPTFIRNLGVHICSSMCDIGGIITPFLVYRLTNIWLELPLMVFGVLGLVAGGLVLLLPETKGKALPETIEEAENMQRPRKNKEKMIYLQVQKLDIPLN

[7] = target: T2, MATE1 (Homo sapiens, UniProt Q96FL8); test: Inhibition of MATE1-mediated oxaliplatin transport in human serum or 4% BSA HBSS
T2 sequence (Q96FL8 1-570): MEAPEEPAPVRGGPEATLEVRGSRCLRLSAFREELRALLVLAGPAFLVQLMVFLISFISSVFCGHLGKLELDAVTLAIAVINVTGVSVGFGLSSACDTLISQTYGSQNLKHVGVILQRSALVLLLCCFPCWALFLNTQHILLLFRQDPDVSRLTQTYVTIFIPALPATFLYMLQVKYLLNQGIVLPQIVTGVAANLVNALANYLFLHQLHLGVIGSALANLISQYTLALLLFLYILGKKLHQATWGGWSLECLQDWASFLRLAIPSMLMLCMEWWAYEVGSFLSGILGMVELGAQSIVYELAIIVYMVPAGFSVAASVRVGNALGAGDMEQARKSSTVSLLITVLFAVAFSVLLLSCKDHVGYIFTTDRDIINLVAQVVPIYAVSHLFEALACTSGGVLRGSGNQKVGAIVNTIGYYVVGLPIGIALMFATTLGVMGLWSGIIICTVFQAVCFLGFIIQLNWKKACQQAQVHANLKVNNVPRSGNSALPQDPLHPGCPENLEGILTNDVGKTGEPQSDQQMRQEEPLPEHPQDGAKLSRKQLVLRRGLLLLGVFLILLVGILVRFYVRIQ
Text: (§1) Fully confluent MDCK cell monolayers were transfected with either cDNA plasmids encoding the human transporter to be tested or a GFP control. […] The cells were then washed with ice-cold PBS and lysed with 50:50 acetonitrile:H2O. Intracellular content of the substrate was quantified by LC/MS/MS or a MicroBeta radiometric plate reader.

[8] = target: MATE2K (Homo sapiens, UniProt Q86VL8); test: Inhibition of MATE2K-mediated oxaliplatin transport in human serum or 4% BSA HBSS
Text: as §1

[9] = target: T3, OCT2 over OCT1, OCT3 and MATE1 (Homo sapiens, UniProt O15244); test: Inhibition of OCT2-mediated oxaliplatin transport in 100% human serum or HBSS containing 4% BSA (IC50,app); settings: human, MDCK-II cells transfected with human transporters, fold higher potency (selectivity) for OCT2 over OCT1, OCT3 and MATE1 in transporting oxaliplatin, from IC50,app of Table 4
T3 sequence (O15244 1-555): T1 sequence (O15244 1-555)
Text: as §1

[10] = system: Balb/c mice exposed to acute treatment with Oxaliplatin; test: Cold plate test after a single oxaliplatin administration; format: in vivo, mouse; settings: 48 hours after single OXA 3.5 mg/kg iv, DTG 4 mg/kg ip 1 hour before
Experimental: OXA vehicle, OXA, CPC, DTG, DTG+OXA and CPC+OXA were administered once time. In the group co-administered with OXA and DTG. DTG was injected intraperitoneally 1 hour before the administration of OXA. In the group co-administered with OXA and CPC, CPC was co-administered with OXA intravenously. Mechanical allodynia and cold sensory threshold (dynamic test and cold plate test) were performed 24 and 48 hours after the treatment, respectively, using the methods described in EXAMPLE 15 Plasma Sample Collection

MATE2K, sequence (Q86VL8 1-566 isoform Q86VL8-3): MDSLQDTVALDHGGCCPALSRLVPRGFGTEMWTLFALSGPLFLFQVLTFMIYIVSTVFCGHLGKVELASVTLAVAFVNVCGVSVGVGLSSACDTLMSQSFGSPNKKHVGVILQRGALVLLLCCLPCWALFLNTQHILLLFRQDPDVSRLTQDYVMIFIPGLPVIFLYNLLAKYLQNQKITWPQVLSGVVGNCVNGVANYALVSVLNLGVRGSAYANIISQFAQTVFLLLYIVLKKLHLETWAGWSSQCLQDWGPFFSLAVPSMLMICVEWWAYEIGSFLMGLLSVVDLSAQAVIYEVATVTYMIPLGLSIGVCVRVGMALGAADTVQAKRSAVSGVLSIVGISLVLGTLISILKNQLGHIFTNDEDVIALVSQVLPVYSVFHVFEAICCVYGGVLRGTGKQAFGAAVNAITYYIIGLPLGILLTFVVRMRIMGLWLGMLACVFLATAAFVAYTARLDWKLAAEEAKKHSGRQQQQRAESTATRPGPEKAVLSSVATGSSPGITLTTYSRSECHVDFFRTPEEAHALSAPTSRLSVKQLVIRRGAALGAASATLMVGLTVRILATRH

Structure (SMILES) | cellular accumulation of oxaliplatin in cells co-expressing OCT2 and MATE1 [1] | pharmacokinetic interaction between BFMD and OXA (plasma levels) [2] | plasma level at the end of the study ([2]; BFMD 30 mg/kg ip + 15 mg/kg iv) [ng/mL] | serum BUN values [3] | Plasma peak unbound concentration Cmax,u [4] [nM] | effect on anti-tumor potency of gemcitabine in HT-29 [5] | effect on anti-tumor potency of 5-FU in HT-29 [5] | potency estimated from few doses [6] [µM] | IC50 [7] [µM] | IC50 [8] [µM] | selectivity ratio [9] | cold allodynia, cold plate [10] | cold allodynia, cold plate ([10]; listed as DTG)
COc1cc(OC)c(C(=O)CCCN2CCCC2)c(OC)c1 [Buflomedil, 4-pyrrolidin-1-yl-1-(2,4,6-trimethoxyphenyl)butan-1-one] | reduced cellular accumulation of oxaliplatin | No pharmacokinetic interaction was observed | > 1720 | lowers the BUN values | 2040 | did not impact the anti-tumor effect of 5-FU and gemcitabine; also recorded: did not affect anti-tumor potency of gemcitabine | did not impact the anti-tumor effect of 5-FU and gemcitabine; also recorded: did not affect anti-tumor potency of 5-FU | < 0.1 | 32.7 ± 5.4 | 84 ± 23.1 | > 10 |  | 
C[C@@H]1CCO[C@H]2Cn3cc(C(=O)NCc4ccc(F)cc4F)c(=O)c(O)c3C(=O)N12 [Dolutegravir] |  |  |  |  | 50 | did not impact the anti-tumor effect of 5-FU and gemcitabine | did not impact the anti-tumor effect of 5-FU and gemcitabine; also recorded: did not affect anti-tumor potency of 5-FU |  |  |  | ≥ 10 | effective on reducing cold hypersensitivity | protects the animal from cold allodynia
Clc1ccc(COC(Cn2ccnc2)c2ccc(Cl)cc2Cl)c(Cl)c1 (centres unmarked) [Miconazole] |  |  |  |  |  |  |  | 2 | > 100 | > 100 |  |  | 
